From patent publication US10654834B2 (Venenum Biodesign, LLC, priority 2016, dated 2020)
Where two headings read alike, the source gives them in different places.

Tests used:
[1] = Pharmacokinetic profile in mice after oral gavage; assay type: in vivo, mouse; settings: mouse; fasted male Hilltop mice, 10 mg/kg oral gavage, plasma; read-out: Cmax
Summary of the method: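 Plasma exposure (Cmax, AUC) by non-compartmental analysis of LC-MS/MS data, orbital blood taken at 0, 0.25, 0.5, 1, 2 and 4 h, each value averaging three mice. Dosing: 10 mg/kg oral gavage to overnight-fasted male Hilltop mice (8 weeks), vehicle PEG400/CMC/Tween-80.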

[2] = tested on: Mouse STC-1 cells; assay: STC-1 GLP-1 assay (GLP-1 secretion); assay type: cell-based
Summary of the method: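 Secreted active GLP-1 was measured by HTRF after overnight room-temperature incubation of supernatant with the conjugates. Supernatants came from a 2 h, 37° C. compound exposure (12-point half-log series) in HBSS with DPP-IV and protease inhibitors and 0.1% fatty acid free BSA. STC-1 cells had been seeded two days earlier in stripped-serum DMEM; EC50 reported.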

[3] = Mouse STC-1 cells, GLP-1 secretion, 2 h, read-out: Mouse STC-1 HTRF GLP-1 Activity (EC50)

| SMILES | Cmax [1] [ng/mL] | EC50 [2, 3] [nM] | EC50 ([2]; Mus musculus, STC-1, read-out: EC50 concentration of GLP-1 stimulation in STC-1 cells) [nM] |
| --- | --- | --- | --- |
| N#CCCN1CCN(c2cc(N3CCC[C@H]3C(=O)NCCc3ccc(C#N)cc3)nc(C(F)(F)F)n2)CC1 [Compound 32] | 1350 | 100 to 999 | – |
| COc1cc(C(F)(F)F)ccc1CCNC(=O)[C@@H]1CCCN1c1cc(N2CCC(CCCC(=O)O)CC2)nc(C(F)(F)F)n1 [Compound 34] | 31 | < 100 | – |
| N#Cc1ccc(CCNC(=O)[C@@H]2CCN2c2cc(N3CCC(CCNc4c(NCC(=O)O)c(=O)c4=O)CC3)nc(C(F)(F)F)n2)cc1 [Compound 302, (S)-2-((2-((2-(1-(6-(2-((4-cyanophenethyl)carbamoyl)azetidin-1-yl)-2-(trifluoromethyl)pyrimidin-4-yl)piperidin-4-yl)ethyl)amino)-3,4-dioxocyclobut-1-en-1-yl)amino)acetic acid] | 3.7 | < 100 | – |
| COc1cc(C(F)(F)F)ccc1CCNC(=O)[C@@H]1CCN1c1cc(N2CCC(CCC(=O)O)CC2)nc(C(F)(F)F)n1 [Compound 239, (S)-3-(1-(6-(2-((2-methoxy-4-(trifluoromethyl)phenethyl)carbamoyl)azetidin-1-yl)-2-(trifluoromethyl)pyrimidin-4-yl)piperidin-4-yl)propanoic acid] | 53 | < 100 | – |
| O=C(O)CCCC1CCN(c2cc(N3CCC[C@@H](C(=O)NCCc4ccc(C(F)(F)F)cc4)C3)nc(C(F)(F)F)n2)CC1 [Compound 330, (R)-4-(1-(2-(trifluoromethyl)-6-(3-((4-(trifluoromethyl)phenethyl)carbamoyl)piperidin-1-yl)pyrimidin-4-yl)piperidin-4-yl)butanoic acid] | 20 | 100 to 999 | – |
| N#Cc1ccc(CCNC(=O)[C@@H]2CCCN2c2cc(N3CCC(CCCC(=O)N[C@@H](CCCNC(=N)N)C(=O)N[C@@H](CCCNC(=N)N)C(=O)O)CC3)cc(C(F)(F)F)n2)cc1 [Compound 202, (S)-2-((S)-2-(4-(1-(2-((S)-2-((4-cyanophenethyl)carbamoyl)pyrrolidin-1-yl)-6-(trifluoromethyl)pyridin-4-yl)piperidin-4-yl)butanamido)-5-guanidinopentanamido)-5-guanidinopentanoic acid] | < 0.1 | < 100 | – |
| O=C(CCC1CCN(c2cc(N3CC[C@H]3C(=O)NCCc3ccc(C(F)(F)F)cc3)nc(C(F)(F)F)n2)CC1)NCS(=O)(=O)O [Compound 253, (S)-(3-(1-(2-(trifluoromethyl)-6-(2-((4-(trifluoromethyl)phenethyl)-carbamoyl)azetidin-1-yl)pyrimidin-4-yl)piperidin-4-yl)propanamido)-methanesulfonic acid] | 48 | < 100 | – |
| N#Cc1ccc(CCNC(=O)[C@@H]2CCCN2c2cc(N3CCC(OCC#CCS(=O)(=O)O)CC3)nc(C(F)(F)F)n2)cc1 [Compound 134, (S)-4-((1-(6-(2-((4-cyanophenethyl)carbamoyl)pyrrolidin-1-yl)-2-(trifluoromethyl)pyrimidin-4-yl)piperidin-4-yl)oxy)but-2-yne-1-sulfonic acid] | 22 | 100 to 999 | – |
| N#Cc1ccc(CCNC(=O)[C@@H]2CCCN2c2cc(N3CCC(CCNc4c(NCP(=O)(O)O)c(=O)c4=O)CC3)nc(C(F)(F)F)n2)cc1 [Compound 369, (S)-(((2-((2-(1-(6-(2-((4-cyanophenethyl)carbamoyl)pyrrolidin-1-yl)-2-(trifluoromethyl)pyrimidin-4-yl)piperidin-4-yl)ethyl)amino)-3,4-dioxocyclobut-1-en-1-yl)amino)methyl)phosphonic acid] | 1.7 | 100 to 999 | – |
| N#Cc1ccc(CCNC(=O)[C@@H]2CCN2c2cc(N3CCC(CCNC(=O)NCCOCCNC(=O)NCCC(=O)O)CC3)nc(C(F)(F)F)n2)cc1 [Compound 360, (S)-1-(1-(6-(2-((4-cyanophenethyl)carbamoyl)azetidin-1-yl)-2-(trifluoromethyl)pyrimidin-4-yl)piperidin-4-yl)-4,12-dioxo-8-oxa-3,5,11,13-tetraazahexadecan-16-oic acid] | 0.5 | < 100 | – |

Other lines, results leading:

| Cmax [1] [ng/mL] | EC50 [2, 3] [nM] | EC50 ([2]; Mus musculus, STC-1, read-out: EC50 concentration of GLP-1 stimulation in STC-1 cells) [nM] | SMILES |
| --- | --- | --- | --- |
| 36 | < 100 | – | N#Cc1ccc(CCNC(=O)[C@@H]2CCN2c2cc(N3CCC(CCCC(=O)NCP(=O)(O)O)CC3)nc(C(F)(F)F)n2)cc1 [Compound 362, (S)-((4-(1-(6-(2-((4-cyanophenethyl)carbamoyl)azetidin-1-yl)-2-(trifluoromethyl)pyrimidin-4-yl)piperidin-4-yl)butanamido)methyl)phosphonic acid] |
| 670 | 100 to 999 | – | N#Cc1ccc(CCNC(=O)[C@@H]2CCCN2c2cc(N3CCC(CCCC(=O)NCCNC(=N)N)CC3)nc(C(F)(F)F)n2)cc1 [Compound 128, (S)-N-(4-cyanophenethyl)-1-(6-(4-(4-((2-guanidinoethyl)amino)-4-oxobutyl)piperidin-1-yl)-2-(trifluoromethyl)pyrimidin-4-yl)pyrrolidine-2-carboxamide] |
| 43 | < 100 | – | NS(=O)(=O)CCNC(=O)CCCC1CCN(c2cc(N3CCC[C@H]3C(=O)NCCc3ccc(C(F)(F)F)cc3)nc(C(F)(F)F)n2)CC1 [Compound 59, (S)-1-(6-(4-(4-oxo-4-((2-sulfamoylethyl)amino)butyl)piperidin-1-yl)-2-(trifluoromethyl)pyrimidin-4-yl)-N-(4-(trifluoromethyl)phenethyl)-pyrrolidine-2-carboxamide] |
| 29 | < 100 | – | O=C(CCCC1CCN(c2cc(N3CCC[C@H]3C(=O)NCCc3ccc(C(F)(F)F)cc3)nc(C(F)(F)F)n2)CC1)NCCS(=O)(=O)O [Compound 58, (S)-2-(4-(1-(2-(trifluoromethyl)-6-(2-((4-(trifluoromethyl)phenethyl)-carbamoyl)-pyrrolidin-1-yl)-pyrimidin-4-yl)piperidin-4-yl)butanamido)ethanesulfonic acid] |
| 105 | < 100 | – | N#Cc1ccc(CCNC(=O)[C@@H]2CCCN2c2cc(N3CCC(CCNC(=O)NCP(=O)(O)O)CC3)nc(C(F)(F)F)n2)cc1 [Compound 372, (S)-((3-(2-(1-(6-(2-((4-cyanophenethyl)carbamoyl)pyrrolidin-1-yl)-2-(trifluoromethyl)pyrimidin-4-yl)piperidin-4-yl)ethyl)ureido)methyl)phosphonic acid] |
| 3.3 | < 100 | – | N#Cc1ccc(CCNC(=O)[C@@H]2CCCN2c2cc(N3CCC(CCCC(=O)NCCS(=O)(=O)O)CC3)nc(C(F)(F)F)n2)cc1 [Compound 61, (S)-2-(4-(1-(6-(2-((4-cyanophenethyl)carbamoyl)pyrrolidin-1-yl)-2-(trifluoromethyl)pyrimidin-4-yl)-piperidin-4-yl)butanamido)ethanesulfonic acid] |
| 1.4 | < 100 | – | N#Cc1ccc(CCNC(=O)[C@@H]2CCCN2c2cc(N3CCC(CCNC(=O)[C@@H](N)CS(=O)(=O)O)CC3)nc(C(F)(F)F)n2)cc1 [Compound 123, (R)-2-amino-3-((2-(1-(6-((S)-2-((4-cyanophenethyl)carbamoyl)pyrrolidin-1-yl)-2-(trifluoromethyl)pyrimidin-4-yl)piperidin-4-yl)ethyl)amino)-3-oxopropane-1-sulfonic acid] |
| 1.3 | < 100 | – | N#Cc1ccc(CCNC(=O)[C@@H]2CCCN2c2cc(N3CCC(CCCC(=O)NCCCS(=O)(=O)O)CC3)nc(C(F)(F)F)n2)cc1 [Compound 63, (S)-3-(4-(1-(6-(2-((4-cyanophenethyl)carbamoyl)pyrrolidin-1-yl)-2-(trifluoromethyl)pyrimidin-4-yl)-piperidin-4-yl)butanamido)propane-1-sulfonic acid] |
| 235 | 100 to 999 | – | N#Cc1ccc(CCNC(=O)[C@@H]2CCCN2c2cc(N3CCC(CCCNC(=O)NCC(=O)O)CC3)nc(C(F)(F)F)n2)cc1 [Compound 121, (S)-2-(3-(3-(1-(6-(2-((4-cyanophenethyl)carbamoyl)pyrrolidin-1-yl)-2-(trifluoromethyl)pyrimidin-4-yl)piperidin-4-yl)propyl)ureido)acetic acid] |
| 7.7 | < 100 | ~55 | N#Cc1ccc(CCNC(=O)[C@@H]2CCN2c2cc(N3CCC(CCNC(=O)NCCC(=O)O)CC3)nc(C(F)(F)F)n2)cc1 [Compound 268, (S)-3-(3-(2-(1-(6-(2-((4-cyanophenethyl)carbamoyl)azetidin-1-yl)-2-(trifluoromethyl)pyrimidin-4-yl)piperidin-4-yl)ethyl)ureido)propanoic acid] |
| 970 | 100 to 999 | – | COCC1CCN(c2cc(N3CCC[C@H]3C(=O)NCCc3ccc(C#N)cc3)nc(C(F)(F)F)n2)CC1 [Compound 24] |
| < 1 | < 100 | – | N#Cc1ccc(CCNC(=O)[C@@H]2CCN2c2cc(N3CCC(CCNC(=O)NCCS(=O)(=O)O)CC3)nc(C(F)(F)F)n2)cc1 [Compound 271, (S)-2-(3-(2-(1-(6-(2-((4-cyanophenethyl)carbamoyl)azetidin-1-yl)-2-(trifluoromethyl)pyrimidin-4-yl)piperidin-4-yl)ethyl)ureido)-ethanesulfonic acid] |
| 55 | 100 to 999 | – | N#Cc1ccc(CCNC(=O)[C@@H]2CCCN2c2cc(N3CCC(CCCC(=O)O)CC3)nc(C(F)(F)F)n2)cc1 [Compound 29] |
| 13 | 100 to 999 | – | N#Cc1ccc(CCNC(=O)[C@@H]2CCN2c2cc(N3CCC(CCCC(=O)NCCOCCNC(=N)N)CC3)nc(C(F)(F)F)n2)cc1 [Compound 284, (S)-N-(4-cyanophenethyl)-1-(6-(4-(4-((2-(2-guanidinoethoxy)-ethyl)amino)-4-oxobutyl)piperidin-1-yl)-2-(trifluoromethyl)pyrimidin-4-yl)azetidine-2-carboxamide] |
